Experimental data: patent US12171744B2, “Pharmaceutical combinations for the treatment of cancer” (Presage Biosciences, Inc., priority 2016, dated 2024)

How the values were obtained:
[1] = test system: HCC1187 triple negative breast cancer cells; test: Western blot of treated cells; format: cell-based; details: for XBP1 expression: at 24 hours
Experimental: Cell lines shown in Table 1, adherent or suspension, were treated in 6-well dishes or T10 flasks respectively, seeded at one million per ml density prior to treatment in total volumes of 3-10 ml. All agents used for in vitro cell treatments were formulated in water/DMSO to achieve required concentrations (as stated in respective figure labels/legends) with DMSO concentrations not exceeding 0.01%. Drug sources are indicated in table under ‘CIVO microinjection studies’. Cells were harvested at experimental time points: 2, 6, or 24 hours post treatment as indicated in respective figures, first by washing cells twice in ice-cold PBS in 15 ml falcon tubes, centrifugation at 1000 rpm for 5 mins followed by lysis of the respective cell pellets as described in section below. Note: Drug resistant NUDHL1 Dox 1000 nM and Toledo Dox 1000 nM cell lines were generated at Presage by culturing parental lines in media with stepwise increments in Doxorubicin concentration over several passages. These cells were used to generate xenografts when resistance to 1 uM Dox was achieved.
Protein lysates were prepared by adding ice-cold 1×RIPA Buffer (from 10×, Millipore) with 1×-3× Halt protease and phosphatase inhibitor cocktail (100×, Pierce) to cell pellets, followed by pulse sonication (˜3-5 secs) three times. Lysates were cleared by centrifugation at 14K rpm for 15-20 mins and the supernatant (lysate) was collected for further analysis. To prepare lysates from cryopreserved xenograft tumor tissue, tissue was first homogenized using a hand-held tissue homogenizer (Cole Palmer) in above lysis buffer followed by pulse sonication and centrifugation as described above. Above steps were carried out under ice cold conditions. […] 20-25 micrograms of protein from each sample were subject to SDS-PAGE using BOLT 4-12% Bis-Tris gels (Thermofisher) and transferred to either 0.45 or 0.2 micron pore size membranes (as applicable based on protein molecular size), and either nitrocellulose (NC) or pvdf (Thermofisher) using manufacturer's protocol, blocked for one hour in 5% milk at room temperature, probed with primary antibodies (Table 2) at 4 deg C. overnight and corresponding HRP-conjugated secondary antibodies (Jackson Immunoresearch, 1:10,000-1:20,000 dilutions) for 1 hour at room temperature. Three PBS/0.01% Tween-20 washes (5-10 mins each) were carried out after each antibody incubation. ECL chemiluminescent substrate (Pierce or GE) and autoradiographic film (Thermofisher) was used for detection of protein signals.
1 ug of mRNA from each condition was used to generate cDNA using the High Capacity cDNA Reverse Transcription Kit (Applied Biosystems) and manufacturer's protocol. 100 ng cDNA was used to conduct a PCR assay to amplify XBP1 u or splice forms (Thermofisher PCR Supermix)—94 deg C. for 2 mins, (94 deg C. for 15 secs, 55 deg C. for 30 secs, 72 deg C. for 1 min)×30 cycles, 72 deg C. for 7 mins, hold at 4 deg C.

NudHL1 DLBCL xenografts = test: CIVO microinjection, CC3 staining after 6 hours; format: in vivo, mice; details: treated for 6 hours
Experimental: Mice were enrolled into CIVO drug studies when the tumor volume reached approximately 1000 mm^3. Microinjection studies were performed using the CIVO device as previously described (Klinghoffer et al, Science Translational Medicine 2015) The device was configured with 6 injection needles set for a 6 mm injection length and a total volume delivery of 3 μl. A fluorescent tracking marker (FTM) was added to each drug reservoir in vehicle for delivery along with each drug or drug combination. […] Total amounts of agents injected are tabulated below in Table 4.
FIGS. 9A-9D depict cells that were treated as above and stained for cleaved caspase-3 (CC3) as a marker of apoptosis (shown in red).
FIGS. 10A-10D depict cells that were treated as above and stained for cleaved caspase-3 (CC3) as a marker of apoptosis (shown in red).

tissue section = test: Tissue section treated with bortezomib; format: in vivo; details: some cells appear resistant
[2] = Body weight in HCC1187 TNBC mouse model; details: in vivo
Experimental: Mice were enrolled for study when tumors reached an average volume of 150-200 mm^3. Tumor volume was calculated as V=length×width×height, all three dimensions measured using digital calipers along with body weight. Animals were removed from the study when—any one of the three measured dimensions of the tumor exceeding 2 cm, volume exceeding 2500 mm^3, ulceration or body weight loss greater than 20%.

[3] = test system: HCC1187 triple negative breast cancer (TNBC) xenograft model; test: CIVO microinjection, MCL-1 and CC3 staining; format: in vivo, mice; details: for expression of MCL-1: drug screen; for CC3 expression: marker of apoptosis
Experimental: (§1) Mice were enrolled into CIVO drug studies when the tumor volume reached approximately 1000 mm^3. Microinjection studies were performed using the CIVO device as previously described (Klinghoffer et al, Science Translational Medicine 2015) The device was configured with 6 injection needles set for a 6 mm injection length and a total volume delivery of 3 μl. A fluorescent tracking marker (FTM) was added to each drug reservoir in vehicle for delivery along with each drug or drug combination. All micro-doses were equivalent to or lower than what would be allowed under FDA guidelines for Exploratory IND (Investigational New Drug) studies and by solubility of drug into vehicle. Total amounts of agents injected are tabulated below in Table 4.
A drug screen was performed to test multiple drugs simultaneously.
FIG. 11 depicts a similar experiment performed on the HCC1187 triple negative breast cancer (TNBC) xenograft model. […] Cells were then stained for CC3 expression (shown in red) as a marker of apoptosis.
FIGS. 20A-20D depicts the HCC1187 triple negative breast cancer (TNBC) xenograft model. Briefly, cells were treated with vehicle, voruciclib alone, ixazomib alone, or voruciclib and ixazomib in combination. Cells were then stained for CC3 expression (shown in red) as a marker of apoptosis.

MAK = MAK (Homo sapiens, UniProt P20794); test: Kinase inhibition profile
MAK, sequence (P20794 whole entry): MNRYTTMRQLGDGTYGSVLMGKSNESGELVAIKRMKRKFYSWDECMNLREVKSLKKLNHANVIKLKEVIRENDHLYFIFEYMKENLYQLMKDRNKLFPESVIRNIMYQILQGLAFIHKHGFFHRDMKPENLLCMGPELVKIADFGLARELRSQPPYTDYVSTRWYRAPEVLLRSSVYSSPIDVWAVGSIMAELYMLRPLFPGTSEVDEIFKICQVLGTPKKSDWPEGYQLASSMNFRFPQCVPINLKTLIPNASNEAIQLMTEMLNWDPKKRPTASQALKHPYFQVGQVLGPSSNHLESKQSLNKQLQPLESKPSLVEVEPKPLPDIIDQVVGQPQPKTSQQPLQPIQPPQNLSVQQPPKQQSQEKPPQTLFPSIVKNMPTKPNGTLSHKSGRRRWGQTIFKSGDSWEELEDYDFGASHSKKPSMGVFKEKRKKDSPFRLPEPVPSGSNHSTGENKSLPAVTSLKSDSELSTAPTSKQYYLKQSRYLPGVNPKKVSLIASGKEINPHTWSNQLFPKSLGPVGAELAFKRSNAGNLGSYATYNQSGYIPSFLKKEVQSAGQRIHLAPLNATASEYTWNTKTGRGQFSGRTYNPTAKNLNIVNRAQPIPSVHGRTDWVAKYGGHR

ICK = ICK (Homo sapiens, UniProt Q9UPZ9); test: Kinase inhibition profile; format: biochemical
ICK, sequence (Q9UPZ9 whole entry): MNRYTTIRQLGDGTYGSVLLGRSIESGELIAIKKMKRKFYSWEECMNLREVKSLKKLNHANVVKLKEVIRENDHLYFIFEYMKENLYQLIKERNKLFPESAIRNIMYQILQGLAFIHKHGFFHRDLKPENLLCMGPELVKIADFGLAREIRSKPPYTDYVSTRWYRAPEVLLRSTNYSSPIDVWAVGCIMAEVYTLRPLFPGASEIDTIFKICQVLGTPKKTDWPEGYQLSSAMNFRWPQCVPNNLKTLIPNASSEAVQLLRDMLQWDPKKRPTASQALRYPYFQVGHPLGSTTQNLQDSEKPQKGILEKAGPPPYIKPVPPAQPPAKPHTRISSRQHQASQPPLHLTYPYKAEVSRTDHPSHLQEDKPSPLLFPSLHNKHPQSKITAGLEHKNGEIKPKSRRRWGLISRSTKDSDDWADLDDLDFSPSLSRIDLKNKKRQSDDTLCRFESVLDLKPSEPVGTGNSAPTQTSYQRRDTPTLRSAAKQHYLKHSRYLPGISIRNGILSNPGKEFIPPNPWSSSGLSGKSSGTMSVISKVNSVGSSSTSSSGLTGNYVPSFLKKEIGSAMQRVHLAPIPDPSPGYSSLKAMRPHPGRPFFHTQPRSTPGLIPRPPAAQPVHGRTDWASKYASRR

tumor cells = test: Solid tumor section, CDK inhibitors in combination with ixazomib; parameters: species or system mice; details: mouse, in vivo
Experimental: as §1

Q: For tunicamycin [reference compound], which “X-box binding protein 1 (XBP1) expression” value ([1]; at 6 hours) is on record?
A: Its value is “strongly induced”.

Q: What about the XBP1 expression [1] of the same compound?
A: The XBP1 expression was “strongly induced”.

Q: For `C[C@@]12OC(=O)[C@]1([C@@H](O)[C@@H]1C=CCCC1)NC(=O)[C@@H]2CCCl` [marizomib], which CC3 expression (NudHL1 DLBCL xenografts) is on record?
A: Its CC3 expression is “little to no increase”.

Q: Which results are given for `CC(C)C[C@H](NC(=O)[C@H](Cc1ccccc1)NC(=O)c1cnccn1)B(O)O` [bortezomib]?
A: apoptosis (tissue section): induces apoptosis in some cells; body weight of mice [2]: unaffected; MCL-1 protein expression ([1]; Western blot, compared to untreated sample): increased; XBP1 expression [1]: strongly induced; CC3 expression (NudHL1 DLBCL xenografts): little to no increase; expression of MCL-1 [3]: increase; expression of MCL-1 ([3]; listed as Bortezomib): markedly increased; CC3 expression [3]: little to no increase

Q: Which results are given for `CN1CC[C@H](c2c(O)cc(O)c3c(=O)cc(-c4ccccc4Cl)oc23)[C@H](O)C1` [flavopiradol, reference compound]?
A: inhibition of MAK (MAK): potent inhibitor; inhibition of ICK (ICK): potent inhibitor

Q: Which “synergistic effect on apoptosis of tumor cells” value (tumor cells) does the source give for `CC(C)C[C@H](NC(=O)CNC(=O)c1cc(Cl)ccc1Cl)B(O)O` [ixazomib] here?
A: Its value is “did not exhibit the synergistic effect”.

Q: What about the CC3 expression [3] of the same compound?
A: Its CC3 expression is “little to no increase”.
